Measured values as given in ChEMBL document CHEMBL5120873, “Discovery of novel benzimidazole derivatives as potent p300 bromodomain inhibitors with anti-proliferative activity in multiple cancer cells” (Bioorg Med Chem, 2022).
Values belong to the compound of their own block, whether it stands above or below them. The source made the active and inactive calls. The calls are words filed in the database; no cut-off is given here.

Key:
[1] = molecular target: T1, Histone acetyltransferase p300 (Homo sapiens, UniProt Q09472); test: Inhibition of EP300 bromodomain (unknown origin) incubated for 20 mins by AlphaLISA method
[2] = molecular target: T1, Histone acetyltransferase p300; test: Binding affinity to recombinant EP300 bromodomain (unknown origin) assessed as change in melting temperature by differential scanning fluorimetry method
CWR22R = test: Antiproliferative activity against human 22Rv1 cells incubated for 5 days by CCK-8 method; assay type: functional, cell-based; conditions: 22Rv1, 120 h
OPM-2 [3] = test: Antiproliferative activity against human OPM-2 cells incubated for 5 days by CCK-8 method; assay type: functional, cell-based; conditions: OPM-2, 120 h
MCF7 = test: Antiproliferative activity against human MCF7 cells incubated for 5 days by CCK-8 method; assay type: functional, cell-based; conditions: MCF7, 120 h
[4] = molecular target: T2, CREB-binding protein/Histone acetyltransferase p300 (Homo sapiens) (UniProt Q09472+Q92793); test: Inhibition of EP300/CBP bromodomain in human OPM-2 cells assessed as suppression of c-myc expression incubated for 3 days by Western blot analysis; assay type: cell-based; conditions: dose 0.8-5 µM, time 3.0 day, DDE = dose-dependent effect
SCC-9 = test: Antiproliferative activity against human SCC-9 cells incubated for 5 days by CCK-8 method; assay type: functional, cell-based; conditions: SCC-9, 120 h
[5] = molecular target: T2, CREB-binding protein/Histone acetyltransferase p300 (Homo sapiens); test: Inhibition of EP300/CBP bromodomain in human OPM-2 cells assessed as suppression of c-myc expression at <= 1 uM incubated for 3 days by Western blot analysis; assay type: cell-based; conditions: time 3.0 day
OPM-2 [6] = test: Induction of apoptosis in human OPM-2 cells assessed as apoptotic cells at 3 uM incubated for 72 hrs by annexin V-FITC/PI staining based flow cytometry analysis; assay type: functional
OPM-2 [7] = test: Induction of cell cycle arrest in human OPM-2 cells assessed as accumulation of cells at G1/G0 phase at 5 uM incubated for 48 hrs by PI staining based flow cytometry analysis (reference value: 34.25 %); assay type: functional
[8] = molecular target: T2, CREB-binding protein/Histone acetyltransferase p300 (Homo sapiens); test: Inhibition of EP300/CBP bromodomain in human 22Rv1 cells assessed as suppression of c-myc expression at 0.8 to 5 uM incubated for 3 days by Western blot analysis; assay type: cell-based; conditions: dose 0.8-5 µM, time 3.0 day
[9] = molecular target: T2, CREB-binding protein/Histone acetyltransferase p300 (Homo sapiens); test: Inhibition of EP300/CBP bromodomain in human SCC-9 cells assessed as suppression of c-myc expression at 0.8 to 5 uM incubated for 3 days by Western blot analysis; assay type: cell-based; conditions: dose 0.8-5 µM, time 3.0 day

T1 sequence (Q09472 whole entry): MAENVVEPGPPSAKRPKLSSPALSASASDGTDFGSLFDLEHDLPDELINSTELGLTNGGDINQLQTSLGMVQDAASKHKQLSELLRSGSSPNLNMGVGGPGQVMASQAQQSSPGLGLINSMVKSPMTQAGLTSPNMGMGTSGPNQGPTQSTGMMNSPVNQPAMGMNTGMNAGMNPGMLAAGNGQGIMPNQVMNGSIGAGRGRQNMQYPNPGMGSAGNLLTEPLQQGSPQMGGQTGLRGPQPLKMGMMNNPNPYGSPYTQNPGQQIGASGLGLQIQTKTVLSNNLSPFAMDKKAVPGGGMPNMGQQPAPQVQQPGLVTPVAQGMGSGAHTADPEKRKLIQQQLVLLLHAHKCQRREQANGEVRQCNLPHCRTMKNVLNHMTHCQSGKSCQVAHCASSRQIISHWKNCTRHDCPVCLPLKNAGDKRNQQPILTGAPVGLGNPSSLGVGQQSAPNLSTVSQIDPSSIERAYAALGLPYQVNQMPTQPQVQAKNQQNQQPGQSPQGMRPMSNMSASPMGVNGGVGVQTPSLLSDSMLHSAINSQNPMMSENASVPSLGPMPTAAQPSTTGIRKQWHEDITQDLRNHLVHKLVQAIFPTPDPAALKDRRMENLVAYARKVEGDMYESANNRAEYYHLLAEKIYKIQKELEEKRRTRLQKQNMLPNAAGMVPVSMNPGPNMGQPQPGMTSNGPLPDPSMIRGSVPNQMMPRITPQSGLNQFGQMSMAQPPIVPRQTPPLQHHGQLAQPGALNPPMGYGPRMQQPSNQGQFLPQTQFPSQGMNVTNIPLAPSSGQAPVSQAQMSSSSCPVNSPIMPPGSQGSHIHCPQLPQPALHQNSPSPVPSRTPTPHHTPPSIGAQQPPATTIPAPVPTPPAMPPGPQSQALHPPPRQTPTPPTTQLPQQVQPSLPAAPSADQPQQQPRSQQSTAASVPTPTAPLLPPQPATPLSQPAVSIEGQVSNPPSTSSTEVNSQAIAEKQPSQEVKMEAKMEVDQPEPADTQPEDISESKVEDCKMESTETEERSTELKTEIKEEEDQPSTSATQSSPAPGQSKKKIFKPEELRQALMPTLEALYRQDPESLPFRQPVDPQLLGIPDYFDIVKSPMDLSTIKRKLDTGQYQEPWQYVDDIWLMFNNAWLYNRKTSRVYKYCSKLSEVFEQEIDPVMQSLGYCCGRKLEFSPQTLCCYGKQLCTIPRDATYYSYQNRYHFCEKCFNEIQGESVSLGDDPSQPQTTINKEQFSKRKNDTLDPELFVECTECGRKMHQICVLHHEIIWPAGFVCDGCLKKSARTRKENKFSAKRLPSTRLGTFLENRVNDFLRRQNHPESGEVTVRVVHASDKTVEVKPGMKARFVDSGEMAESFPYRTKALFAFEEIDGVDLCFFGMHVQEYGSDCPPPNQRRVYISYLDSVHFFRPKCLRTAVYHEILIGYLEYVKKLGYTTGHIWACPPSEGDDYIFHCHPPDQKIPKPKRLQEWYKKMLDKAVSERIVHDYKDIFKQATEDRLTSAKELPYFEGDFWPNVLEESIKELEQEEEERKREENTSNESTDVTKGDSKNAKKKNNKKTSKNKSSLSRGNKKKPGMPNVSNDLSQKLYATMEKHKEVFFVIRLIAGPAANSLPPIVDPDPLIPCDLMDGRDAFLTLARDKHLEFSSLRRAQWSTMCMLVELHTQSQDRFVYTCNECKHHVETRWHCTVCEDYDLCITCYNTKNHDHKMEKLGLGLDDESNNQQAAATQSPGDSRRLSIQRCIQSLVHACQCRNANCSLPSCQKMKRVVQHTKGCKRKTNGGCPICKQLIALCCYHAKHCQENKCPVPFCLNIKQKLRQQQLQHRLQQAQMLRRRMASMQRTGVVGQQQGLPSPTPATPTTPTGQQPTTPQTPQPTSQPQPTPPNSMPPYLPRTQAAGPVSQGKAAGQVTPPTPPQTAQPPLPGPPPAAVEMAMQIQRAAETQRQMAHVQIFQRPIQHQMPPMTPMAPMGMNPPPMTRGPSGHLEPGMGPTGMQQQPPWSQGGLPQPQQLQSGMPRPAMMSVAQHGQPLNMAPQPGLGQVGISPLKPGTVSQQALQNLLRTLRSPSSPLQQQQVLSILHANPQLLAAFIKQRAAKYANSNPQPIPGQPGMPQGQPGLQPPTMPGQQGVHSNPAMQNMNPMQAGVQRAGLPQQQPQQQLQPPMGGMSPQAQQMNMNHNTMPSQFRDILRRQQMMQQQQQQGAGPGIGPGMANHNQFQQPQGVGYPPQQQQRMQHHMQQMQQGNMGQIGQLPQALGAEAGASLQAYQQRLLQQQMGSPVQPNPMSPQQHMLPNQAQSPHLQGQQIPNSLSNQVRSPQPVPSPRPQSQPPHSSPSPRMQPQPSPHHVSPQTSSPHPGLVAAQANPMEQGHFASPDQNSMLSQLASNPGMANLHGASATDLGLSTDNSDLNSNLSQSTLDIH
T2 sequence (Q09472 whole entry, looked up): as the sequence (Q09472 whole entry) above
T2 sequence (Q92793 whole entry, looked up): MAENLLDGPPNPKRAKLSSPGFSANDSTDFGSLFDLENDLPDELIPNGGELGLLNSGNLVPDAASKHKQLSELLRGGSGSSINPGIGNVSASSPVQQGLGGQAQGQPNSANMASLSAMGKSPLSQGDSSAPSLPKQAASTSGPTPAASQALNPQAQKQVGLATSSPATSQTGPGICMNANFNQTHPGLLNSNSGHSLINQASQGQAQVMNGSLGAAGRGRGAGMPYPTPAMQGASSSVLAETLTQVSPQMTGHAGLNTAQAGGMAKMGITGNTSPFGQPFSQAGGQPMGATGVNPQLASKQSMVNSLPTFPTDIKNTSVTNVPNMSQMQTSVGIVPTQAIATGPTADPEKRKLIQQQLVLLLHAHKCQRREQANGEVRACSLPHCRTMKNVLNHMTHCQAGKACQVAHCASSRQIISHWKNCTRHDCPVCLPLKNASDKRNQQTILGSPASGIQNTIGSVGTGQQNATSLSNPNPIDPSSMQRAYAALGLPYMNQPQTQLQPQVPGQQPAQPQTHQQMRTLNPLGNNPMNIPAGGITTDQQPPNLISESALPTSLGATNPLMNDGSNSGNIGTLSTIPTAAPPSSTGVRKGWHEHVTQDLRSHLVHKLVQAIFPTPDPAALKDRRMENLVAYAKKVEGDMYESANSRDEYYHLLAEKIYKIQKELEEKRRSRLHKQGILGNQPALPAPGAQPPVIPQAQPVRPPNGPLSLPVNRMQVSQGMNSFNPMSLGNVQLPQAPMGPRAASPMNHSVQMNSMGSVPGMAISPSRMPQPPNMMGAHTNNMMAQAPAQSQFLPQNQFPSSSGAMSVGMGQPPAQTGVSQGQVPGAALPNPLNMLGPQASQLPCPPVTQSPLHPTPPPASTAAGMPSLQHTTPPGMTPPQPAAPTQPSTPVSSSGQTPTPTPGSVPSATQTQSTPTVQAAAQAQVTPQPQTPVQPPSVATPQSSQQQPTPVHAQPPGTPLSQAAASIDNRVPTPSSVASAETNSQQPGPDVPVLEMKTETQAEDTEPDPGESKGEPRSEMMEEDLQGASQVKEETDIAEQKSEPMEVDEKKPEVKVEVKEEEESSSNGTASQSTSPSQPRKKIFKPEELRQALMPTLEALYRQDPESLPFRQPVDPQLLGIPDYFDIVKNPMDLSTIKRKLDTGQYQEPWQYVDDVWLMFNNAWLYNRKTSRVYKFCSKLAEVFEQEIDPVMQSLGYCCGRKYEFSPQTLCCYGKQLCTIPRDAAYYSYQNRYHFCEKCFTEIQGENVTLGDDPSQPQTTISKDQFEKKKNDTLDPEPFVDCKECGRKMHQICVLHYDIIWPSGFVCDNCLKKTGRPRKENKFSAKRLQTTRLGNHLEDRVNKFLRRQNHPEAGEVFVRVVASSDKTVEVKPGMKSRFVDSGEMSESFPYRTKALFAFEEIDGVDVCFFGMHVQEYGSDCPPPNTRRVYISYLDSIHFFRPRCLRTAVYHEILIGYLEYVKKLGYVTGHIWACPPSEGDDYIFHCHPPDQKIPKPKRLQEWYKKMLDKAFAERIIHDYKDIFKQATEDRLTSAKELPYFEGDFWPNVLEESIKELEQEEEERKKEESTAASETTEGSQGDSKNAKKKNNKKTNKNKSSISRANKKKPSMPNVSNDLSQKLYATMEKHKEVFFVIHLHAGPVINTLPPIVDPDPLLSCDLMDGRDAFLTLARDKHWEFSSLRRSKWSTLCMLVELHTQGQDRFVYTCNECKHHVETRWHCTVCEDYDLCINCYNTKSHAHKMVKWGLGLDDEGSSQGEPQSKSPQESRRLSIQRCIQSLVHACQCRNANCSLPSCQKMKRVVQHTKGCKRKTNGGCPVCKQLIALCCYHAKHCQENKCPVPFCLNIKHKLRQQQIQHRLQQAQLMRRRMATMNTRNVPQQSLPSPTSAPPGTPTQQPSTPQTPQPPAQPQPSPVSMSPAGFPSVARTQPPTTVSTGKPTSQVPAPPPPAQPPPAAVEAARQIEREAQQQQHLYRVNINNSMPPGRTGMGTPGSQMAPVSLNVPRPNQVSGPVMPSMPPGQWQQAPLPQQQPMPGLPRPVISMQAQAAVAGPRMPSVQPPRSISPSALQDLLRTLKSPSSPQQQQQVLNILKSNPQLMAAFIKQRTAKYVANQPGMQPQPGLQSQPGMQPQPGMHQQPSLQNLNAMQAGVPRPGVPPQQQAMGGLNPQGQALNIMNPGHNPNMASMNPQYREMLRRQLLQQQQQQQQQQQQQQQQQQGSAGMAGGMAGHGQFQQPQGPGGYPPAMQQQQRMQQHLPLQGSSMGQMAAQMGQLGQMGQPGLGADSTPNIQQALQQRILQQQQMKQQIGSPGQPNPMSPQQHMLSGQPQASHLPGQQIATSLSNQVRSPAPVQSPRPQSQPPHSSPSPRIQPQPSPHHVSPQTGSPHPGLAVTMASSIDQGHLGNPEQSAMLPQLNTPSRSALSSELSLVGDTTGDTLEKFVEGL

- IC50 [1]: 263 nM
Compound: Cc1noc(C)c1-c1ccc2c(c1)nc(C1CC1c1ccccc1)n2[C@H]1CC[C@H](O)CC1 (stereo partly drawn)

- ΔTm [2]: 4.1 °C
Compound: COc1ccc(CCc2nc3cc(C(C)=O)ccc3n2C[C@H](C)N2CCOCC2)cc1Cl

- IC50 [1]: 94 nM
Compound: COc1ccc(CCc2nc3cc(-c4c(C)noc4C)ccc3n2C2CCN(C(C)=O)CC2)cc1Cl

- ΔTm [2]: 2.97 °C
Compound: COc1ccc(CCc2nc3cc(NC(C)=O)ccc3n2C[C@H](C)N2CCOCC2)cc1Cl

- IC50 [1]: 81 nM
- IC50 (MCF7): 1990 nM
- Activity [4]: Dde
Compound: COc1ccc(N2C(=O)C[C@@H]2c2nc3cc(-c4c(C)noc4C)ccc3n2[C@H]2CC[C@H](OC)CC2)cc1Cl
- IC50 (CWR22R): 3680 nM
- IC50 (OPM-2 [3]): 1540 nM
- IC50 (SCC-9): 3170 nM

- IC50 [1]: 155 nM
Compound: COc1ccc(CCc2nc3cc(-c4c(C)noc4C)ccc3n2[C@H]2C[C@H](O)C2)cc1Cl

- IC50 [1]: 112 nM
Compound: COc1ccc(CCc2nc3cc(-c4c(C)noc4C)ccc3n2C2CC(C)(C)OC(C)(C)C2)cc1Cl

- IC50 [1]: 83 nM
Compound: COc1ccc(CCc2nc3cc(-c4c(C)noc4C)ccc3n2C2CCC(F)(F)CC2)cc1Cl

- ΔTm [2]: 4.5 °C
- IC50 (MCF7): 2390 nM
Compound: COc1ccc(CCc2nc3cc(-c4c(C)noc4C)ccc3n2C[C@H](C)N2CCOCC2)cc1Cl
- IC50 (CWR22R): > 10000 nM
- IC50 (OPM-2 [3]): 2640 nM
- IC50 (SCC-9): 6420 nM

- ΔTm [2]: 2.1 °C
Compound: CNC(=O)c1ccc2c(c1)nc(CCc1ccc(OC)c(Cl)c1)n2C[C@H](C)N1CCOCC1

- IC50 [1]: 894 nM
Compound: COc1ccc(CCc2nc3cc(-c4c(C)noc4C)ccc3n2[C@H]2CC[C@H](C(F)(F)F)CC2)cc1Cl

- ΔTm [2]: 2.95 °C
Compound: COc1ccc(CCc2nc3cc(-c4cnn(C)c4)ccc3n2C[C@H](C)N2CCOCC2)cc1Cl

- ΔTm [2]: 1.44 °C
Compound: COc1ccc(CCc2nc3cc(CC#N)ccc3n2C[C@H](C)N2CCOCC2)cc1Cl

- IC50 [1]: 49 nM
- Activity [5]: Active
- IC50 (MCF7): 960 nM
- Activity [8]: Active
- Activity [9]: Active
Compound: COc1ccc(N2C(=O)C[C@H]2c2nc3cc(-c4c(C)noc4C)ccc3n2[C@H]2CC[C@H](OC)CC2)cc1Cl
- IC50 (CWR22R): 3740 nM
- IC50 (OPM-2 [3]): 1090 nM
- Activity (OPM-2 [6]): 38.27%
- Activity (OPM-2 [7]): 90%
- IC50 (SCC-9): 1850 nM

- ΔTm [2]: 4.34 °C
Compound: COc1ccc(CCc2nc3cc(-c4cnn(C)n4)ccc3n2C[C@H](C)N2CCOCC2)cc1Cl

- ΔTm [2]: 2.21 °C
Compound: COc1ccc(CCc2nc3cc(C4(C)COC4)ccc3n2C[C@H](C)N2CCOCC2)cc1Cl

- IC50 [1]: 48 nM
- Activity [5]: Active
- IC50 (MCF7): 2820 nM
Compound: COc1ccc(CCc2nc3cc(-c4c(C)noc4C)ccc3n2[C@H]2CC[C@H](O)CC2)cc1Cl
- IC50 (CWR22R): 6830 nM
- IC50 (OPM-2 [3]): 1390 nM
- Activity (OPM-2 [6]): 28.49%
- Activity (OPM-2 [7]): 90%
- IC50 (SCC-9): 3680 nM

- IC50 [1]: 48 nM
Compound: COc1ccc2c(Cc3nc4cc(-c5c(C)noc5C)ccc4n3[C@H]3CC[C@H](O)CC3)cc(=O)oc2c1

- IC50 [1]: 97 nM
- IC50 (MCF7): 5650 nM
- Activity [4]: Dde
Compound: COc1ccc(CCc2nc3cc(-c4c(C)noc4C)ccc3n2[C@H]2CC[C@H](OC)CC2)cc1Cl
- IC50 (CWR22R): > 10000 nM
- IC50 (OPM-2 [3]): 2290 nM
- IC50 (SCC-9): 2550 nM

- ΔTm [2]: 1.07 °C
Compound: COc1ccc(CCc2nc3cc(S(C)(=O)=O)ccc3n2C[C@H](C)N2CCOCC2)cc1Cl

- ΔTm [2]: 2.51 °C
Compound: COc1ccc(CCc2nc3cc(NS(C)(=O)=O)ccc3n2C[C@H](C)N2CCOCC2)cc1Cl

- IC50 [1]: 148 nM
Compound: COc1ccc(CCc2nc3cc(-c4c(C)noc4C)ccc3n2C2CCN(S(C)(=O)=O)CC2)cc1Cl

- ΔTm [2]: 3.53 °C
Compound: CNC(=O)Nc1ccc2c(c1)nc(CCc1ccc(OC)c(Cl)c1)n2C[C@H](C)N1CCOCC1
